The text below walks through data of patent publication US20250326753A1, “DUAL CXCR4-BTK INHIBITORS” (X4 Pharmaceuticals, Inc., priority 2022, published 2025).

What all share (assay type): biochemical
The target of assay [1] is T1, ACK1 (Homo sapiens, UniProt Q07912).
T1 construct: purchased Reaction Biology Europe GmbH
As to the kind of experiment: PanQinase kinase panel: ACK1. As to the method: (§1) Screening procedures were performed in accordance with the company's on-line protocol [accessed on-line Mar.
(§2) For each kinase, the median value of the cpm of three wells was defined as “low control” (n=3). This value reflects unspecific binding of radioactivity to the plate in the absence of a protein kinase but in the presence of the substrate. Additionally, for each kinase the median value of the cpm of three other wells was taken as the “high control,” i.e. full activity in the absence of any inhibitor (n=3). The difference between high and low control of each enzyme was taken as 100% activity.
(§3) As part of the data evaluation the low control of each kinase was subtracted from the high control value as well as from their corresponding “compound values”. The residual activity (in %) for each compound well was calculated by using the following formula: Res. Activity (%)=100×[(signal of compound−low control)/(high control−low control)].

The target of assay [2] is T2, SRMS (Homo sapiens, UniProt Q9H3Y6).
T2 construct: purchased Reaction Biology Europe GmbH
As to the kind of experiment: PanQinase kinase panel: SRMS. Particulars: read-out: INHIBITORY EFFECT @ 1 uM: SRMS. As to the method: as §1, §2, §3

The target of assay [3] is T3, DDR2 (Homo sapiens, UniProt Q16832).
T3 construct: purchased Reaction Biology Europe GmbH
T3 sequence (Q16832 22-855): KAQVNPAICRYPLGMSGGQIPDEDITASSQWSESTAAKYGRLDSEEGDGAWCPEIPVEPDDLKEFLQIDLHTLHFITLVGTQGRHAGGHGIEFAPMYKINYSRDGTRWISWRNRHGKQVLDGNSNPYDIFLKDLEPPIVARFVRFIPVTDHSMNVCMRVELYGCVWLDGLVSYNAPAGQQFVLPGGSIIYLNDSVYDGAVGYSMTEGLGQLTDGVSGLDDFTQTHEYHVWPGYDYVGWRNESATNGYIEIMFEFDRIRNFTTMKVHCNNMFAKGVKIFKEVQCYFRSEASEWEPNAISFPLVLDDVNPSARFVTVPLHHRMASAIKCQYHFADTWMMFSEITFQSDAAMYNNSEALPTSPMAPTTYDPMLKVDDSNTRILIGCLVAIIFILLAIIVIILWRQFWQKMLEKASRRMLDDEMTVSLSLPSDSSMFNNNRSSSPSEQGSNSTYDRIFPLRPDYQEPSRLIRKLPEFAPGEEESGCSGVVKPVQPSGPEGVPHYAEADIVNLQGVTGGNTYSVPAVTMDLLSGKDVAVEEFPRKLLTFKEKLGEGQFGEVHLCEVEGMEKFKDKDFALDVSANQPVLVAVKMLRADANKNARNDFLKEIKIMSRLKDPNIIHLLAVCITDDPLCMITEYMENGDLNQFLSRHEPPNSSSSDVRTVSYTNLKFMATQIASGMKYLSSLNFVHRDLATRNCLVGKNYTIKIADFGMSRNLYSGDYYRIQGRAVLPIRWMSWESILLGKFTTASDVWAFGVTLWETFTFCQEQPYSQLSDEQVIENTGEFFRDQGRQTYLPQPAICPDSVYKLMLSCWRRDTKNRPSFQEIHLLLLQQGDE
The assay can be described thus: PanQinase kinase panel: DDR2. As to the method:
as §1, §2, §3

The target of assay [4] is T4, FES (Homo sapiens, UniProt P07332).
T4 construct: purchased Reaction Biology Europe GmbH
The assay can be described thus: PanQinase kinase panel: FES. Particulars: read-out: INHIBITORY EFFECT @ 1 uM: FES. The method, then: as §1, §2, §3

For assay [5], the target named is T5, KIT (Homo sapiens, UniProt P10721).
T5 construct: purchased Reaction Biology Europe GmbH
As to the kind of experiment: PanQinase kinase panel: KIT. Particulars: read-out: INHIBITORY EFFECT @ 1 uM: KIT. The method, then:
as §1, §2, §3

The target in assay [6] is T6, MAP4K5 (Homo sapiens, UniProt Q9Y4K4).
T6 construct: purchased Reaction Biology Europe GmbH
As to the kind of experiment: PanQinase kinase panel: MAP4K5. To be noted: read-out: INHIBITORY EFFECT @ 1 uM: MAP4K5. As to the method:
as §1, §2, §3

Assay [7] addresses T7, PDGFRbeta (Homo sapiens, UniProt P09619).
T7 construct: purchased Reaction Biology Europe GmbH
As to the kind of experiment: PanQinase kinase panel: PDGFRbeta. To be noted: read-out: INHIBITORY EFFECT @ 1 uM: PDGFRbeta. As to the method:
as §1, §2, §3

In assay [8] the test system is 340 wild-type protein kinases. The assay can be described thus: PanQinase wild-type kinase panel, selectivity score. Particulars: 1 μM; for Selectivity Score: share of kinases with residual activity <50%, 340 wild-type protein kinase assays. The method, then:
as §1
The selectivity score for a particular compound at a particular concentration was calculated by using the following formula: Selectivity Score=(count of data points <50%)/(total number of data points).

For assay [9], the target named is T8, CDK13/CycK (Homo sapiens, UniProt Q14004).
T8 construct: purchased Reaction Biology Europe GmbH
As to the kind of experiment: PanQinase kinase panel: CDK13/CycK. The method, then: Screening procedures were performed in accordance with the company's on-line protocol [accessed on-line Mar. 25, 2022 at reaction biology.com/assay-protocol-panqinase]. Inhibitory activity of 50% or greater at concentrations of 1 μM are highlighted for all five compounds tested.
as §2, §3

The mark [10] stands for this setting: read-out: INHIBITORY EFFECT @ 1 uM: ACK1.
The mark [11] stands for this setting: at 1 μM, read-out: inhibition of DDR2.
Setting [12] is: read-out: INHIBITORY EFFECT @ 1 uM: DDR2.
Where [13] appears, read: read-out: INHIBITORY EFFECT @ 1 uM: CDK13/CycK.

Read-outs that look alike come from different tables or passages of the source.

T2 sequence (Q9H3Y6 whole entry): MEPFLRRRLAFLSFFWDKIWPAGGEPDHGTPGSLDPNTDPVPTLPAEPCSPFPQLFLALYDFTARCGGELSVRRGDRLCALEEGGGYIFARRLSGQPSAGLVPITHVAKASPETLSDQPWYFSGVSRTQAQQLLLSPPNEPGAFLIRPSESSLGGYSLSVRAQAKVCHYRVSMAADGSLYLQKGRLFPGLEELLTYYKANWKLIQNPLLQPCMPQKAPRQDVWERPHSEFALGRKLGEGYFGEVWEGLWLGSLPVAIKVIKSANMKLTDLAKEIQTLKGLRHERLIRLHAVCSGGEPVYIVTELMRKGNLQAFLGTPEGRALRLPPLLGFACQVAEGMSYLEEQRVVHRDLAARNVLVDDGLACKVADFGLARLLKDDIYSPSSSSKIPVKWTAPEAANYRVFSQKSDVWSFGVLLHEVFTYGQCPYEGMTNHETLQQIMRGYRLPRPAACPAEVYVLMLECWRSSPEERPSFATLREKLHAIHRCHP
T5 sequence (P10721 26-976): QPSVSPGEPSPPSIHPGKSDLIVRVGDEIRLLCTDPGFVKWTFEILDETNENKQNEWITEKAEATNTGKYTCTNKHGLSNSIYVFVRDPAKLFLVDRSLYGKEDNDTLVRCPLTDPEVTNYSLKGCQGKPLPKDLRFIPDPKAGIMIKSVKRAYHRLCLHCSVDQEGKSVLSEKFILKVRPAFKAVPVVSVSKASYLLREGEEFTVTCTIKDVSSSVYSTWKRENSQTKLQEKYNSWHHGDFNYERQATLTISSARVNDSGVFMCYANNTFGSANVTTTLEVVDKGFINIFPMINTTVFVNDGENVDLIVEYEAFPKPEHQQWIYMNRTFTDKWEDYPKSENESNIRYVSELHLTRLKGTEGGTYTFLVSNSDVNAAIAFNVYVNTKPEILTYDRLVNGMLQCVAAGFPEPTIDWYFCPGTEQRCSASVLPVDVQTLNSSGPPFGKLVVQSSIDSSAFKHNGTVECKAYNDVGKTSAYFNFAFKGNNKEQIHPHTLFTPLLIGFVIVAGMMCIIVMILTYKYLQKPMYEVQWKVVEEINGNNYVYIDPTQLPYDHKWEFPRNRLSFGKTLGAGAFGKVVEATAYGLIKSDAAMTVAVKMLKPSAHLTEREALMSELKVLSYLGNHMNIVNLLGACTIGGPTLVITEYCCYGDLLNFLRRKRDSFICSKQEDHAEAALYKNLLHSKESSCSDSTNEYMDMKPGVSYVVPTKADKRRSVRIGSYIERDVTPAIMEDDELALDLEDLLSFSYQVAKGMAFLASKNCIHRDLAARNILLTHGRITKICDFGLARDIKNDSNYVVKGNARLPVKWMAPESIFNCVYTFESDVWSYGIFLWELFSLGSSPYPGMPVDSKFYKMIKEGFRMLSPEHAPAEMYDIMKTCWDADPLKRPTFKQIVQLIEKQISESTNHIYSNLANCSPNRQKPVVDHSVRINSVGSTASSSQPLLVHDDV
T8 sequence (Q14004 whole entry): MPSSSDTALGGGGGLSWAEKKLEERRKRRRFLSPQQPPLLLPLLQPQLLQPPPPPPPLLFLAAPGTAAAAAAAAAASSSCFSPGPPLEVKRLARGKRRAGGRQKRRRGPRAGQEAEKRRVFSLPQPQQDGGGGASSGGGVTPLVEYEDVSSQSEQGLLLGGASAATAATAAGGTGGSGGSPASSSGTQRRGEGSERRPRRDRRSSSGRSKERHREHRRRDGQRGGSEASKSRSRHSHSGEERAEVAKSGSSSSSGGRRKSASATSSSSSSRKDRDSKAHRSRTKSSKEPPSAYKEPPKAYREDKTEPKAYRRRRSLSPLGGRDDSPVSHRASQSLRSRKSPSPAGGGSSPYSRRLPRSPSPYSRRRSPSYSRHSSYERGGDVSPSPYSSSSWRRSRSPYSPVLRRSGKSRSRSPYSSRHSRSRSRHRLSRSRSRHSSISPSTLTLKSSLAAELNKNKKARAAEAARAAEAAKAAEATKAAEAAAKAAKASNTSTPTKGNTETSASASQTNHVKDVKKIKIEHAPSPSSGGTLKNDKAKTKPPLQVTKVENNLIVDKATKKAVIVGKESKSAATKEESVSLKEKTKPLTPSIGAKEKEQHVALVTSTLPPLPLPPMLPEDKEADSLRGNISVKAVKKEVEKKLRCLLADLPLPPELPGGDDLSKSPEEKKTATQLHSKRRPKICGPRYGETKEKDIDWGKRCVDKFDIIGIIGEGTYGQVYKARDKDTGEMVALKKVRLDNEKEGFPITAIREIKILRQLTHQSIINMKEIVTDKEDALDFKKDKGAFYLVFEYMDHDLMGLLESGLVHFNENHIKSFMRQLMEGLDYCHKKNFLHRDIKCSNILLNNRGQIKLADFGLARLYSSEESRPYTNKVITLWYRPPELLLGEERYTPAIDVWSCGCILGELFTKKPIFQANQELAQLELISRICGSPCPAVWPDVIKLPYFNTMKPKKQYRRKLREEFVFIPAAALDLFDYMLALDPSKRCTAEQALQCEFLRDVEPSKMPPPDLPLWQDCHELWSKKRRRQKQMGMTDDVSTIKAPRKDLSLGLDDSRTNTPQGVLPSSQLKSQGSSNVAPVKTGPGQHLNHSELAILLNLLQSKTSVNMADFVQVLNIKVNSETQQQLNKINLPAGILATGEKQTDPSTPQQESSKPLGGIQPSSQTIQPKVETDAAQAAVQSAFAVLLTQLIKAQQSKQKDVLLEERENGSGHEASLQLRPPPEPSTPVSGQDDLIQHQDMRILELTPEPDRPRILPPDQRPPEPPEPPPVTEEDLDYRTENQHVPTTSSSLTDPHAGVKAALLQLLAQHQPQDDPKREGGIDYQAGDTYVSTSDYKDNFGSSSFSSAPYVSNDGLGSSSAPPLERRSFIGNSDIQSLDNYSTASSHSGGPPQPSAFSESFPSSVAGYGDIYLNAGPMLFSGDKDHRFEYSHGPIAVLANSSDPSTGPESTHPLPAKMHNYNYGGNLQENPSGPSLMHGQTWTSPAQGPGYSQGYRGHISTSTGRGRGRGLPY
T8 sequence (O75909 whole entry partner): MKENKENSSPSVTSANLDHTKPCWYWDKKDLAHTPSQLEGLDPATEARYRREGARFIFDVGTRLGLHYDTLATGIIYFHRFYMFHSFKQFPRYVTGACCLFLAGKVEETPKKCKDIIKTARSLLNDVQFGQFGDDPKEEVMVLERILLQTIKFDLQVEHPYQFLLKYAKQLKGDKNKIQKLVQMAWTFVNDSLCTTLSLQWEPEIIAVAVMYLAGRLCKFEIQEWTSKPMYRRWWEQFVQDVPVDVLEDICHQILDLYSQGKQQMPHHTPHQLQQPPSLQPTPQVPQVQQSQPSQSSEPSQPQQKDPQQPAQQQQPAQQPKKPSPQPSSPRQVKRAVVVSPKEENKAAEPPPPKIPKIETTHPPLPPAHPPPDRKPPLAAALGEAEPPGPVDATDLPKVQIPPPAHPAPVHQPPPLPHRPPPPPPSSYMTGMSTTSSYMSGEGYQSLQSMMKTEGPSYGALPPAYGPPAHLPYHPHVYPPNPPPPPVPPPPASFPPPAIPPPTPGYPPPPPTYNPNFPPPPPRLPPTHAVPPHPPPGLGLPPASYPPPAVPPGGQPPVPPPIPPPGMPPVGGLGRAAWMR
T6 sequence (Q9Y4K4 whole entry): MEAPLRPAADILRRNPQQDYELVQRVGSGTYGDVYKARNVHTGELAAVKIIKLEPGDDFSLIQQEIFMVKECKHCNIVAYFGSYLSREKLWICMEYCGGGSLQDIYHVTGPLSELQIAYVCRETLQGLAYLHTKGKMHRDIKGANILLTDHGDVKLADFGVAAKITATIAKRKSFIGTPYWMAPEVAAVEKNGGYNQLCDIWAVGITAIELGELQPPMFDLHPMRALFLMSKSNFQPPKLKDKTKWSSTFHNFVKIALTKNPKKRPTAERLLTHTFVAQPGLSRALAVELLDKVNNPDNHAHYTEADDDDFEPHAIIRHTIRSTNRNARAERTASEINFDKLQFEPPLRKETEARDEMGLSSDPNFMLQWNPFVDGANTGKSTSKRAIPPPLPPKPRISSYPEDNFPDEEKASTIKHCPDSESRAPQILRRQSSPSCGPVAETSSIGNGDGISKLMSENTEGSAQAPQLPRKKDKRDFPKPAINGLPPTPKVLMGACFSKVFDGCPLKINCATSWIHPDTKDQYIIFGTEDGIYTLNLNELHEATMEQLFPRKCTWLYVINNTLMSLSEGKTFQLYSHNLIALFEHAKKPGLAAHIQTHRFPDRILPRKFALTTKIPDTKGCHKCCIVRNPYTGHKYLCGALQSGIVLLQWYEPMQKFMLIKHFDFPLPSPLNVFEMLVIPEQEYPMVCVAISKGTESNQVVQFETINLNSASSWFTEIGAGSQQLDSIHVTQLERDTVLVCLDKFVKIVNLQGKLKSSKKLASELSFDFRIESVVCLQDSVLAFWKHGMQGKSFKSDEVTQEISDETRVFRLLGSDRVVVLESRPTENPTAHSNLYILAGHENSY

Take `O=C(c1ccc(Oc2ccccc2)cc1Cl)c1c[nH]c2ncnc(N[C@@H]3CC[C@@H](CO)OC3)c12` [ARQ-531, (2-chloro-4-phenoxyphenyl) (4-(((3R,6S)-6-(hydroxymethyl)tetrahydro-2H-pyran-3-yl)amino)-7H-pyrrolo[2,3-d]pyrimidin-5-yl) methanone]: the inhibition at 1 µM in [1] (setting [10]) is 90 to 100%; in [2], 90 to 100%; in assay [3] (setting [11]), not below 50%; in assay [3] (setting [12]), 50 to 69%; in [4], 50 to 69%; in assay [5] it was 90 to 100%. Moreover, the inhibition at 1 µM in assay [6] was 50 to 69%; in assay [7], less than 50%.

With `Cc1cccnc1[C@H]1CCC[C@@H](c2ncccc2C)N1CCN1CCN(C(=O)c2ccc(-c3cc4c(-c5cccc(NC(=O)c6ccccc6)c5C)ncnc4[nH]3)cc2)CC1` [Compound I-10, N-(3-(6-(4-(4-(2-((2R,6S)-2,6-bis(3-methylpyridin-2-yl)piperidin-1-yl)ethyl)piperazine-1-carbonyl)phenyl)-7H-pyrrolo[2,3-d]pyrimidin-4-yl)-2-methylphenyl)benzamide], the “Selectivity Score” value in [8] worked out at 0.053. Further, in assay [8] (panel of approximately 336 wild-type kinases, in words), the kinase selectivity profile result is recorded as “surprisingly high selectivity for BTK inhibition”. The inhibition at 1 µM in assay [1] (1 μM, read-out: inhibitor effect on ACK1) is not below 90%; in [1] (setting [10]), 90 to 100%; in assay [2], less than 50%; in assay [3] (setting [11]), 50 to 89%; in assay [3] (setting [12]), 70 to 89%; in [9] (at 1 μM, read-out: inhibition of CDK13/CycK) it was 50 to 89%. Moreover, the inhibition at 1 µM in assay [9] (setting [13]) was 50 to 69%; in assay [4] it was less than 50%; in [5] it was less than 50%; in assay [6], less than 50%; in [7] it was less than 50%.

In the case of `Cc1cc(-c2ccnc(Nc3cnn(CCN4[C@@H](c5ncccc5C)CCC[C@H]4c4ncccc4C)c3)n2)ccc1CNC(=O)N1CC(OC(C)C)C1` [Compound I-11], the “Selectivity Score” value in assay [8] amounted to 0.032.

For `Cc1cccnc1[C@H]1CCC[C@@H](c2ncccc2C)N1CCCCNC(=O)[C@@H]1CC[C@@H](Nc2ncnc3[nH]cc(C(=O)c4ccc(Oc5ccccc5)cc4Cl)c23)CO1` [Compound I-16], the “Selectivity Score” value in assay [8] came out at 0.265.

Take `Cc1cccnc1[C@H]1CCC[C@@H](c2ncccc2C)N1CCCCNC(=O)OC[C@@H]1CC[C@@H](Nc2ncnc3[nH]cc(C(=O)c4ccc(Oc5ccccc5)cc4Cl)c23)CO1` [Compound I-18]: the “Selectivity Score” value in assay [8] is 0.221.

Turning to `COc1ccc(F)cc1C(=O)NCc1ccc(-c2nn([C@@H](C)C(F)(F)F)c(N)c2C(N)=O)cc1` [LOXO-305, pirtobrutinib], the inhibition at 1 µM in [1] (setting [10]), in assay [2], in assay [3] (setting [12]), in assay [9] (setting [13]), in [4] and in [5] was less than 50% in each case. Moreover, the inhibition at 1 µM in [6] and in assay [7] was less than 50% in each case.

With `C=CC(=O)N1CCC([C@@H]2CCNc3c(C(N)=O)c(-c4ccc(Oc5ccccc5)cc4)nn32)CC1` [Zanubrutinib, (7S)-2-(4-phenoxyphenyl)-7-(1-prop-2-enoylpiperidin-4-yl)-4,5,6,7-tetrahydropyrazolo[1,5-a]pyrimidine-3-carboxamide], the inhibition at 1 µM in assay [1] (setting [10]), in [2], in assay [3] (setting [12]), in assay [9] (setting [13]), in assay [4] and in assay [5] was less than 50% each time. Further, the inhibition at 1 µM in assay [6] and in assay [7] was less than 50% in each case.
